Broadly, the IC50 is the midpoint of a concentration-inhibition curve.

Test [1] addresses T1, myeloperoxidase (Homo sapiens, UniProt P05164).
T1 sequence (P05164 49-745): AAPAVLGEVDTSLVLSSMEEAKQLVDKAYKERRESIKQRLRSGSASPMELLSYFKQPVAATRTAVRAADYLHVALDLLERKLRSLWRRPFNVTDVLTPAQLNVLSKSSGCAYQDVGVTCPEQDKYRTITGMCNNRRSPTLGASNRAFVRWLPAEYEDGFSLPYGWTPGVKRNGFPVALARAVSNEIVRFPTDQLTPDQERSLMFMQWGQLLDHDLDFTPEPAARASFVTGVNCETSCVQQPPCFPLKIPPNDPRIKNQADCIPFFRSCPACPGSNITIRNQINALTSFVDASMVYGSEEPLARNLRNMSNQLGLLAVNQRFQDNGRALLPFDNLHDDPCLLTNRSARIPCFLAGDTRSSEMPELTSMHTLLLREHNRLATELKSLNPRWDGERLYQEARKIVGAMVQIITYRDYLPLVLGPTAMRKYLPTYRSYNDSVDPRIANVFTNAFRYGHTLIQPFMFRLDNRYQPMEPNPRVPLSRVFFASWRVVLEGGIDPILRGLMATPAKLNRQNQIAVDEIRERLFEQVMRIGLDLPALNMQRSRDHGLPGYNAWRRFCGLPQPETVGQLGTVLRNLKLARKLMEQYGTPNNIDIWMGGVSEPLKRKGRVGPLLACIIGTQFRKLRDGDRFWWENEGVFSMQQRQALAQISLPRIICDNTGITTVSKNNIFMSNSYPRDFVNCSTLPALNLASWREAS
Briefly: MPO Chlorination Assay (APF Assay). It counts as biochemical. Particulars: potency range class, read-out: APF Assay IC50 value.

Test [2] concerns the target T1, myeloperoxidase. Description: MPO Peroxidation Assay (Amplex Red Assay). Type of test: biochemical. Particulars: potency range class, read-out: Amplex Red Assay IC50 value.

Where a name gives a salt, the structure may show the parent alone.

As to `Nc1cc(C(CCN[C@H]2CC[C@H](c3ccncc3)CC2)c2ccccc2)c2nn[nH]c2n1` (stereo partly drawn) [Example 139, 7-(1-phenyl-3-{[(trans)-4-(pyridin-4-yl)cyclohexyl]amino}propyl)-3H-[1,2,3] triazolo[4,5-b] pyridin-5-amine], the IC50 lay in the range of 1 to 100 nM on myeloperoxidase [1] and 101 to 999 nM at myeloperoxidase [2].
Taken in the same sequence, the figures for `NC(=O)CN(CC[C@H](c1ccccc1)c1cc(N)nc2[nH]nnc12)C12CCC(c3ccccc3)(CC1)CC2` [Example 190, (R)-2-((3-(5-amino-3H-[1,2,3]triazolo[4,5-b]pyridin-7-yl)-3-phenylpropyl)(4-phenylbicyclo[2.2.2]octan-1-yl)amino)acetamide] were 1 to 100 nM and 101 to 999 nM.
Turning to `Nc1cc(C(CCCN2CCC3(CC2)OCc2ccccc23)c2ccccc2)c2nn[nH]c2n1` (stereo not drawn) [Example 210, 7-(1-phenyl-4-{3H-spiro[2-benzofuran-1,4′-piperidine]-1′-yl}butyl)-3H-[1,2,3]triazolo [4,5-b]pyridin-5-amine], the values for the IC50 at myeloperoxidase [1] and on myeloperoxidase [2] were 1 to 100 nM and 101 to 999 nM, respectively.
Regarding `NC(=O)c1cccc(-c2cccc3[nH]c(C[C@H](c4ccccc4)c4cc(N)nc5[nH]nnc45)nc23)c1` [Example 245, (R)-3-(2-(2-(5-amino-3H-[1,2,3]triazolo [4,5-b]pyridin-7-yl)-2-phenylethyl)-1H-benzo[d]imidazol-4-yl)benzamide], the values for the IC50 on myeloperoxidase [1] and at myeloperoxidase [2] were 1 to 100 nM and 101 to 999 nM, respectively.
In the case of `Nc1cc([C@H](Cc2nc3c(-c4ccc(Cl)cc4)cccc3[nH]2)c2ccccc2)c2nn[nH]c2n1` [Example 253, (R)-7-(2-(4-(4-chlorophenyl)-1H-benzo[d]imidazol-2-yl)-1-phenylethyl)-3H-[1,2,3]triazolo [4,5-b] pyridin-5-amine], the IC50 at myeloperoxidase [1] was 1 to 100 nM; at myeloperoxidase [2], 1000 to 10000 nM.
On to `Nc1cc([C@H](CCCN2CCCC(c3ccccc3)CC2)c2ccccc2)c2nn[nH]c2n1` (stereo partly drawn) [Example 215, 7-[(1R)-1-phenyl-4-(4-phenylazepan-1-yl)butyl]-3H-[1,2,3]triazolo[4,5-b]pyridin-5-amine], for which the IC50 on myeloperoxidase [1] is 1 to 100 nM; on myeloperoxidase [2], 101 to 999 nM.
Consider `Nc1cc(C(CCNC(=O)c2ccccc2)c2ccccc2)c2nn[nH]c2n1` (stereo not drawn) [Example 39, N-(3-(5-amino-3H-[1,2,3]triazolo[4,5-b]pyridin-7-yl)-3-phenylpropyl)benzamide], for which the IC50 lay within 1000 to 10000 nM at myeloperoxidase [1] and 101 to 999 nM on myeloperoxidase [2].
The corresponding values for `Nc1cc(C(CCNC23CCC(c4ccccc4)(CC2)CC3O)c2ccccc2)c2nn[nH]c2n1` (stereo not drawn) [Example 152, 1-[(3-{5-amino-3H-[1,2,3]triazolo[4,5-b]pyridin-7-yl}-3-phenylpropyl)amino]-4-phenylbicyclo [2.2.2]octan-2-ol] are 1 to 100 nM and 1 to 100 nM.
For the compound `Nc1cc(C(CCNC2CCC(Cc3ccccc3)CC2)c2ccccc2)c2nn[nH]c2n1` (stereo not drawn) [Example 129, 7-{3-[(4-benzylcyclohexyl)amino]-1-phenylpropyl}-3H-[1,2,3]triazolo[4,5-b]pyridin-5-amine], the results for the half-maximal inhibitory concentration (IC50) on myeloperoxidase [1] and at myeloperoxidase [2] were 1 to 100 nM and 1000 to 10000 nM, respectively.
Turning to `Nc1cc([C@H](Cc2nc3ccc(Br)cc3s2)c2ccccc2)c2nn[nH]c2n1` [Example 263, (R)-7-(2-(6-bromobenzo [d]thiazol-2-yl)-1-phenylethyl)-3H-[1,2,3]triazolo[4,5-b] pyridin-5-amine], the IC50 at myeloperoxidase [1] and on myeloperoxidase [2] was 101 to 999 nM each time.
Turning to `N#CC1(c2ccccc2)CCC(NCCC(c2ccccc2)c2cc(N)nc3[nH]nnc23)CC1` (stereo not drawn) [Example 177, 4-((3-(5-amino-3H-[1,2,3]triazolo[4,5-b]pyridin-7-yl)-3-phenylpropyl)amino)-1-phenylcyclohexane-1-carbonitrile], the results for the IC50 at myeloperoxidase [1] and at myeloperoxidase [2] were 1 to 100 nM and 101 to 999 nM, respectively.
For the compound `Nc1cc(C(CCCN2CC(c3ccc(F)cc3)c3ccccc32)c2ccccc2)c2nn[nH]c2n1` (stereo not drawn) [Example 205, 7-{4-[3-(4-fluorophenyl)-2,3-dihydro-1H-indol-1-yl]-1-phenylbutyl}-3H-[1,2,3]triazolo [4,5-b]pyridin-5-amine], the IC50 at myeloperoxidase [1] and at myeloperoxidase [2] was 1000 to 10000 nM throughout.
For `Nc1cc(C(CC(O)CCc2ccccc2)c2ccccc2)c2nn[nH]c2n1` (stereo not drawn) [Example 225, 1-(5-amino-3H-[1,2,3]triazolo[4,5-b]pyridin-7-yl)-1,5-diphenylpentan-3-ol, TFA], the IC50 on myeloperoxidase [1] and on myeloperoxidase [2] was 101 to 999 nM each time.
Consider `Nc1cc(C(CCN[C@H]2CCc3cc(F)ccc32)c2ccccc2)c2nn[nH]c2n1` (stereo partly drawn) [Example 58, 7-(3-{[(1S)-5-fluoro-2,3-dihydro-1H-inden-1-yl]amino}-1-phenylpropyl)-3H-[1,2,3]triazolo[4,5-b]pyridin-5-amine], for which the IC50 lay in the range of 1 to 100 nM at myeloperoxidase [1] and 101 to 999 nM at myeloperoxidase [2].
For the compound `Nc1cc(C(CCCN2CCC(Cc3ccccc3)CC2)c2ccccc2)c2nn[nH]c2n1` (stereo not drawn) [Example 213, 7-[4-(4-benzylpiperidin-1-yl)-1-phenylbutyl]-3H-[1,2,3]triazolo [4,5-b]pyridin-5-amine], the IC50 at myeloperoxidase [1] and at myeloperoxidase [2] was 101 to 999 nM in each case.
In the case of `Nc1cc(C(CCC(N)Cc2ccccc2)c2ccccc2)c2nn[nH]c2n1` (stereo not drawn) [Example 235, 7-(4-amino-1,5-diphenylpentyl)-3H-[1,2,3]triazolo[4,5-b]pyridin-5-amine], the IC50 at myeloperoxidase [1] and on myeloperoxidase [2] was 101 to 999 nM each time.
Turning to `CC(C)(NCCC(c1ccccc1)c1cc(N)nc2[nH]nnc12)c1ccccc1` (stereo not drawn) [Example 14, 7-{1-phenyl-3-[(2-phenylpropan-2-yl)amino]propyl}-3H-[1,2,3]triazolo[4,5-b]pyridin-5-amine], the IC50 at myeloperoxidase [1] and at myeloperoxidase [2] was 101 to 999 nM throughout.
As to `Nc1cc([C@H](CCCN2CCC(Cc3ccccc3)C2)c2ccccc2)c2nn[nH]c2n1` (stereo partly drawn) [Example 221, 7-[(1R)-4-(3-benzylpyrrolidin-1-yl)-1-phenylbutyl]-3H-[1,2,3]triazolo[4,5-b]pyridin-5-amine], the IC50 at myeloperoxidase [1] and on myeloperoxidase [2] was 101 to 999 nM each time.
As for `COC(=O)c1cccc(CNCCC(c2ccccc2)c2cc(N)nc3[nH]nnc23)c1` (stereo not drawn) [Example 59, methyl 3-{[(3-{5-amino-3H-[1,2,3]triazolo [4,5-b]pyridin-7-yl}-3-phenylpropyl)amino]methyl} benzoate], the IC50 on myeloperoxidase [1] and at myeloperoxidase [2] was 101 to 999 nM each time.
For the compound `CC1(NCCC(c2ccccc2)c2cc(N)nc3[nH]nnc23)CCc2ccccc21` (stereo not drawn) [Example 110, 7-{3-[(1-methyl-2,3-dihydro-1H-inden-1-yl)amino]-1-phenylpropyl}-3H-[1,2,3]triazolo[4,5-b]pyridin-5-amine], the IC50 on myeloperoxidase [1] and at myeloperoxidase [2] was 101 to 999 nM throughout.
For the compound `Cc1cccc(C)c1CNCCC(c1ccccc1)c1cc(N)nc2[nH]nnc12` (stereo not drawn) [Example 27, 7-(3-{[(2,6-dimethylphenyl)methyl]amino}-1-phenylpropyl)-3H-[1,2,3]triazolo[4,5-b] pyridin-5-amine], the concentration for half-maximal inhibition (IC50) on myeloperoxidase [1] and on myeloperoxidase [2] was 101 to 999 nM each time.
Regarding `Nc1cc(C(CCC(O)Cc2ccccc2)c2ccccc2)c2nn[nH]c2n1` (stereo not drawn) [Example 234, 5-(5-amino-3H-[1,2,3]triazolo[4,5-b]pyridin-7-yl)-1,5-diphenylpentan-2-ol], the IC50 on myeloperoxidase [1] and on myeloperoxidase [2] was 101 to 999 nM in each case.
As for `Nc1cc(C(CCNCC(c2ccccc2)c2ccccc2)c2ccccc2)c2nn[nH]c2n1` (stereo not drawn) [Example 120, 7-{3-[(2,2-diphenylethyl)amino]-1-phenylpropyl}-3H-[1,2,3]triazolo[4,5-b]pyridin-5-amine], the IC50 on myeloperoxidase [1] lay in the range of 1 to 100 nM; at myeloperoxidase [2], 1000 to 10000 nM.
Regarding `Nc1cc(C(CCN[C@@H]2C[C@@H](c3ccccc3)Cc3ccccc32)c2ccccc2)c2nn[nH]c2n1` (stereo partly drawn) [Example 84, 7-(1-phenyl-3-{[(1R,3S)-3-phenyl-1,2,3,4-tetrahydronaphthalen-1-yl]amino}propyl)-3H-[1,2,3]triazolo [4,5-b]pyridin-5-amine], the IC50 at myeloperoxidase [1] was in the range of 101 to 999 nM; on myeloperoxidase [2] it was 1000 to 10000 nM.
`COc1ccncc1[C@H]1CC[C@@H](NCCC(c2ccccc2)c2cc(N)nc3[nH]nnc23)CC1` (stereo partly drawn) [Example 138, 7-(1-phenyl-3-{[(1s,4s)-4-(4-methoxypyridin-3-yl)cyclohexyl]amino}propyl)-3H-[1,2,3]triazolo [4,5-b]pyridin-5-amine]: the IC50 on myeloperoxidase [1] and on myeloperoxidase [2] was 1000 to 10000 nM throughout.
Take `Nc1cc([C@H](CCNC2CC[C@H](c3ccccc3)[C@@H](O)C2)c2ccccc2)c2nn[nH]c2n1` (stereo partly drawn) [Example 183, (1S,2R)-5-{[(3R)-3-{5-amino-3H-[1,2,3]triazolo [4,5-b]pyridin-7-yl}-3-phenylpropyl]amino}-2-phenylcyclohexan-1-ol]: the IC50 at myeloperoxidase [1] fell in the range of 1 to 100 nM; on myeloperoxidase [2], 1000 to 10000 nM.
For `N#Cc1cc(-c2ccccc2)c2nc(C[C@H](c3ccccc3)c3cc(N)nc4[nH]nnc34)[nH]c2c1` [Example 254, (R)-2-(2-(5-amino-3H-[1,2,3]triazolo [4,5-b]pyridin-7-yl)-2-phenylethyl)-4-phenyl-1H-benzo[d]imidazole-6-carbonitrile], the IC50 was 1 to 100 nM on myeloperoxidase [1] and 1000 to 10000 nM at myeloperoxidase [2].
